Test results published in US20070154567A1, “Use of mercury to treat cancer” (priority 2006, published 2007).
Where “and” joins values, the source holds several entries; their conditions need not be identical. Equal entries are not always repeated.

System: non-metastatic osteosarcoma on distal right radius
Experiment: Oral inorganic mercury (II) treatment of a pet Rottweiler: blood data and clinical follow-up
Type: in vivo, dog
Set-up: MCV / MCH / Neutrophils, absolute / Bands / Lymphocytes, absolute / Monocytes, absolute / Eosinophils, absolute / Basophils, absolute: unit not given here
Text: An 8 year old, 108 lbs female Rottweiler, was diagnosed with non-metastatic osteosarcoma on distal right radius.
Earlier cisplatin chemotherapy was attempted, but was stopped due to unacceptable side effects one month before the inorganic mercury treatment. Prior to treatment, the dog had high alkaline phosphatase (ALP) level that had been rising as disease progressed (compare Day (−57) and Day 1 in Table 2). ALP is a known progression marker for osteosarcoma (Kirpensteijn et al., 2002, Vet Pathol 39:240-246 and Gaetano Bacci et al., 2002, Oncology Reports 9: 171-175). The dog completed the first 30-day treatment course followed by a 30-day non-treatment period and started the second treatment course for at least up to day 65. The formulation contained 1 mM mercury acetate in 20 mM sodium acetate buffer, pH 4.5, with 100 mM sucrose and 150 mM sodium chloride additives. It was introduced orally to the dog three times a day at 0.5 micromole Hg^2+/kg/day. […] This drop in ALP level (˜250 Units/month) was significant considering that, prior to starting the mercury (II) treatment, it had been raising at ˜50 U/month rate. As observed by the attending veterinarian, the dog's appetite was increased and the dog gained 5 lbs during that period. […] During this period the condition of the dog worsened and was accompanied by an increase in ALP level (compare Day 32 and Day 65 in Table 3). The dog was euthanized on Day 91.

## CC(=O)[O-].CC(=O)[O-].[Hg+2] [inorganic mercury (II), mercury acetate]
2nd treatment course, formulation administered with food in violation of the protocol
  condition of the dog: worsened
Day 1
  ALT (SGPT): 61 U/L
  AST (SGOT): 28 U/L
  Albumin: 3.7 g/dL
  Albumin/Globulin Ratio: 1.1
  Alkaline Phosphatase (ALP): 794 U/L and 794 (H) U/L
  Amylase: 862 U/L
  BUN/Creatinine Ratio: 9
  Bands: 0
  Basophils, absolute: 0
  CPK: 175 U/L
  Calcium: 10.6 mg/dL
  Chloride: 116 mE/L
  Cholesterol: 240 mg/dL
  Creatinine: 1.2 mg/dL
  Eosinophils, (%): 7%
  Eosinophils, absolute: 770
  Globulin: 3.4 g/dL
  Glucose: 77 mg/dL
  Hematocrit: 41.3%
  Hemoglobin: 13.7 g/dL
  Lymphocytes, (%): 26%
  Lymphocytes, absolute: 2860
  MCH: 22.2
  MCHC: 33.2
  MCV: 67
  Monocytes, (%): 6%
  Monocytes, absolute: 660
  Neutrophils, (%): 61%
  Neutrophils, absolute: 6710
  Phosphorus: 5.4 mg/dL
  Platelet count: 475 (H) 10^3/microl
  Potassium: 5.2 mE/L
  RBC: 6.16 10^6/microl
  Sodium: 152 mE/L
  Total Billirubin: 0.1 mg/dL
  Total Protein: 7.1 g/dL
  Urea Nitrogen: 11 mg/dL
  WBC: 11.0 10^3/microl
Day 1 to Day 32, first treatment course
  drop in ALP level: ~250 Units/month
Day 32
  ALT (SGPT): 61 U/L
  AST (SGOT): 27 U/L
  Albumin: 3.5 g/dL
  Albumin/Globulin Ratio: 1.1
  Alkaline Phosphatase (ALP): 539 U/L and 539 (H) U/L
  Amylase: 864 U/L
  BUN/Creatinine Ratio: 12
  Bands: 0
  CPK: 198 U/L
  Calcium: 10.5 mg/dL
  Chloride: 118 mE/L
  Cholesterol: 251 mg/dL
  Creatinine: 1.3 mg/dL
  Eosinophils, (%): 5%
  Eosinophils, absolute: 495
  Globulin: 3.3 g/dL
  Glucose: 102 mg/dL
  Hematocrit: 39.1%
  Hemoglobin: 13.9 g/dL
  Lymphocytes, (%): 35%
  Lymphocytes, absolute: 3465
  MCH: 24.6
  MCHC: 35.5
  MCV: 69
  Monocytes, (%): 5%
  Monocytes, absolute: 495
  Neutrophils, (%): 55%
  Neutrophils, absolute: 5445
  Phosphorus: 5.5 mg/dL
  Platelet count: 213 10^3/microl
  Potassium: 5.2 mE/L
  RBC: 5.64 10^6/microl
  Sodium: 146 mE/L
  Total Billirubin: 0.2 mg/dL
  Total Protein: 6.8 g/dL
  Urea Nitrogen: 16 mg/dL
  WBC: 9.9 10^3/microl
Day 65
  ALT (SGPT): 62 U/L
  AST (SGOT): 30 U/L
  Albumin: 3.8 g/dL
  Albumin/Globulin Ratio: 1.0
  Alkaline Phosphatase (ALP): 606 (H) U/L
  Amylase: 1003 U/L
  BUN/Creatinine Ratio: 13
  Bands: 0
  Basophils, absolute: 0
  CPK: 171 U/L
  Calcium: 10.9 mg/dL
  Chloride: 113 mE/L
  Cholesterol: 244 mg/dL
  Creatinine: 1.2 mg/dL
  Eosinophils, (%): 8%
  Eosinophils, absolute: 808
  Globulin: 3.8 (H) g/dL
  Glucose: 87 mg/dL
  Hematocrit: 42.3%
  Hemoglobin: 16.1 g/dL
  Lymphocytes, (%): 33%
  Lymphocytes, absolute: 3333
  MCH: 24.8
  MCHC: 38.1 (H)
  MCV: 65
  Monocytes, (%): 4%
  Monocytes, absolute: 404
  Neutrophils, (%): 55%
  Neutrophils, absolute: 5555
  Phosphorus: 5.1 mg/dL
  Platelet count: 368 10^3/microl
  Potassium: 4.6 mE/L
  RBC: 6.49 10^6/microl
  Sodium: 150 mE/L
  Total Billirubin: 0.1 mg/dL
  Total Protein: 7.5 (H) g/dL
  Urea Nitrogen: 15 mg/dL
  WBC: 10.1 10^3/microl
First 30 days of treatment
  weight gained: 5 lbs
First 30 days of treatment, observed by attending veterinarian
  appetite: increased
